Measured values taken from the NIST ThermoML archive (doi:10.1016/j.jct.2006.01.012).
Numbers after ± are expanded uncertainties.

Experiment: xn = mol fraction of the nth substance listed
Settings: Liquid; for viscosity: Capillary tube (Ostwald / Ubbelohde) method; for mass density: isochoric method

CCCCCCCC [octane] + CCCCCCC
Settings | mass density [kg/m3] | viscosity [mPa·s]
373.19 K, 5000 kPa, x2 = 0.7906 | – | 0.217 ± 0.007
373.19 K, 10000 kPa, x2 = 0.7906 | – | 0.23 ± 0.008
373.51 K, 5000 kPa, x2 = 0.2808 | – | 0.241 ± 0.008
373.51 K, 10000 kPa, x2 = 0.2808 | – | 0.255 ± 0.008
373.97 K, 5000 kPa, x2 = 0.5427 | – | 0.227 ± 0.008
373.97 K, 10000 kPa, x2 = 0.5427 | – | 0.24 ± 0.008
374.79 K, 3256 kPa, x2 = 0.2808 | 634.7 ± 0.8 | –
374.79 K, 8081 kPa, x2 = 0.2808 | 641.5 ± 0.8 | –
374.79 K, 9316 kPa, x2 = 0.2808 | 643.1 ± 0.8 | –
380.43 K, 3110 kPa, x2 = 0.5427 | 623.5 ± 0.8 | –
380.43 K, 5712 kPa, x2 = 0.5427 | 628.4 ± 0.8 | –
380.43 K, 8743 kPa, x2 = 0.5427 | 633.1 ± 0.8 | –
380.43 K, 10230 kPa, x2 = 0.5427 | 635.1 ± 0.8 | –
382.99 K, 5000 kPa, x2 = 0.2808 | – | 0.223 ± 0.007
382.99 K, 10000 kPa, x2 = 0.2808 | – | 0.237 ± 0.008
383.18 K, 5000 kPa, x2 = 0.5427 | – | 0.212 ± 0.007
383.18 K, 10000 kPa, x2 = 0.5427 | – | 0.224 ± 0.007
384.55 K, 5000 kPa, x2 = 0.7906 | – | 0.198 ± 0.007
384.55 K, 10000 kPa, x2 = 0.7906 | – | 0.211 ± 0.007
386.91 K, 3743 kPa, x2 = 0.7906 | 612.4 ± 0.7 | –
386.91 K, 5902 kPa, x2 = 0.7906 | 616.6 ± 0.8 | –
386.91 K, 8793 kPa, x2 = 0.7906 | 621.6 ± 0.8 | –
386.91 K, 10710 kPa, x2 = 0.7906 | 624.7 ± 0.8 | –
393.49 K, 5000 kPa, x2 = 0.2808 | – | 0.206 ± 0.007
393.49 K, 10000 kPa, x2 = 0.2808 | – | 0.22 ± 0.007
394.51 K, 5000 kPa, x2 = 0.5427 | – | 0.195 ± 0.006
394.51 K, 10000 kPa, x2 = 0.5427 | – | 0.206 ± 0.007
395.52 K, 5000 kPa, x2 = 0.7906 | – | 0.183 ± 0.006
395.52 K, 10000 kPa, x2 = 0.7906 | – | 0.195 ± 0.006
401.28 K, 4100 kPa, x2 = 0.7906 | 601.1 ± 0.7 | –
401.28 K, 6833 kPa, x2 = 0.7906 | 606.2 ± 0.7 | –
401.28 K, 9204 kPa, x2 = 0.7906 | 610.3 ± 0.7 | –
401.28 K, 10510 kPa, x2 = 0.7906 | 612.5 ± 0.7 | –
401.4 K, 4751 kPa, x2 = 0.2808 | 614.2 ± 0.8 | –
401.4 K, 7120 kPa, x2 = 0.2808 | 618 ± 0.8 | –
401.4 K, 9310 kPa, x2 = 0.2808 | 621.7 ± 0.8 | –
403.23 K, 5000 kPa, x2 = 0.5427 | – | 0.183 ± 0.006
403.23 K, 10000 kPa, x2 = 0.5427 | – | 0.193 ± 0.006
407.72 K, 5000 kPa, x2 = 0.7906 | – | 0.167 ± 0.006
407.72 K, 10000 kPa, x2 = 0.7906 | – | 0.18 ± 0.006
409.59 K, 3334 kPa, x2 = 0.5427 | 598 ± 0.7 | –
409.59 K, 7257 kPa, x2 = 0.5427 | 606.1 ± 0.7 | –
409.59 K, 9316 kPa, x2 = 0.5427 | 609.6 ± 0.7 | –
413.6 K, 5000 kPa, x2 = 0.2808 | – | 0.178 ± 0.006
413.6 K, 10000 kPa, x2 = 0.2808 | – | 0.191 ± 0.006
415.96 K, 5000 kPa, x2 = 0.5427 | – | 0.167 ± 0.006
415.96 K, 10000 kPa, x2 = 0.5427 | – | 0.177 ± 0.006
423.23 K, 3334 kPa, x2 = 0.7906 | 578.1 ± 0.7 | –
423.23 K, 7433 kPa, x2 = 0.7906 | 587.6 ± 0.7 | –
423.23 K, 9708 kPa, x2 = 0.7906 | 592.4 ± 0.7 | –
424.45 K, 5000 kPa, x2 = 0.7906 | – | 0.149 ± 0.005
424.45 K, 10000 kPa, x2 = 0.7906 | – | 0.16 ± 0.005
424.48 K, 4903 kPa, x2 = 0.5427 | 588.7 ± 0.7 | –
424.48 K, 7108 kPa, x2 = 0.5427 | 592.8 ± 0.7 | –
424.48 K, 9298 kPa, x2 = 0.5427 | 597.1 ± 0.7 | –
424.55 K, 5000 kPa, x2 = 0.5427 | – | 0.158 ± 0.005
424.55 K, 10000 kPa, x2 = 0.5427 | – | 0.167 ± 0.006
429.34 K, 3511 kPa, x2 = 0.2808 | 585.6 ± 0.7 | –
429.34 K, 8237 kPa, x2 = 0.2808 | 595.9 ± 0.7 | –
429.34 K, 9630 kPa, x2 = 0.2808 | 598.7 ± 0.7 | –
432.62 K, 5000 kPa, x2 = 0.2808 | – | 0.156 ± 0.005
432.62 K, 10000 kPa, x2 = 0.2808 | – | 0.168 ± 0.006
433.62 K, 5000 kPa, x2 = 0.5427 | – | 0.148 ± 0.005
433.62 K, 10000 kPa, x2 = 0.5427 | – | 0.158 ± 0.005
435.62 K, 5000 kPa, x2 = 0.7906 | – | 0.138 ± 0.005
435.62 K, 10000 kPa, x2 = 0.7906 | – | 0.149 ± 0.005
